# Test results from patent US20250101062A1, “ANTIMICROBIAL PEPTIDES” (Board of Regents of the University of Nebraska, priority 2023, published 2025).
# Like-named read-outs stand apart in the source and are kept apart here. Where a SMILES comes first, the peptide text is derived from it.
# Tests used:
# S. aureus USA300 LAC = test: microbe, parasite or virus in culture; type: cell-based, Staphylococcus aureus
# Experimental: (§1) The following resistant bacterial clinical strains were used in this study: S. aureus USA300 LAC, S. epidermidis 1457, E. coli E423-17, P. aeruginosa E411-17, K. pneumoniae E406-17, and A. baumannii B28-16. While the S. aureus USA300 strain is methicillin-resistant, most of the Gram-negative bacteria contain extended-spectrum beta-lactamase and are resistant to beta-lactam antibiotics. Peptide activity against bacteria was tested using an established lab protocol (Mishra, et al. (2017) Acta Biomater., 49:316-328). In brief, a peptide concentration gradient with twofold dilution was made in the 96-well polystyrene microplate at 10 μL per well. Bacteria were grown to the exponential phase (i.e., optical density at 600 nm≈0.5), diluted to ˜10^5 CFU/mL in different percentages of MHB, TSB, or LB, and partitioned into the 96-well microplate at 90 μL per well. […] They were diluted with autoclaved distilled water to obtain different percentages. The microplates were incubated at 37° C. overnight and read on a ChroMate™ 4300 microplate reader at 600 nm (GMI, Ramsey, MN). The peptide concentration in the wells without bacterial growth is the MIC. As is the convention, MIC values were represented as ranges.
# (§2) For pH effects on peptide activity, the pH of the medium was adjusted to a targeted pH for the autoclave and then remeasured at room temperature. For salt and serum effects on peptide activity, stock NaCl solution or human serum was added to the media.
# (§3) Peptide activity against bacteria were tested using the CLSI standard procedure with minor modifications (Clinical and Laboratory Standards Institute (2018) Performance standards for antimicrobial susceptibility testing, 9th ed.; Mishra, et al. (2019) Proc. Natl. Acad. Sci., 116(27):13517-13522). In brief, a peptide concentration gradient with twofold dilution was made in the 96-well polystyrene microplate at 10 μL per well. Bacteria were grown to the exponential phase (i.e., optical density at 600 nm≈0.5), diluted to ˜10^5 CFU/mL in MHB, and partitioned into the 96-well microplate at 90 μL per well. The microplates were incubated at 37° C. overnight and read on a ChroMate® 4300 Microplate Reader at 600 nm (GMI, Ramsey, MN). The peptide concentration in the wells without bacterial growth is the minimal inhibitory concentration (MIC). As the convention, MIC values were represented as ranges.
# (§4) For pH effects on peptide activity, the pH of the medium was adjusted to a targeted pH for autoclave and then remeasured at room temperature. For salt and serum effects on peptide activity, stock NaCl solution or human serum were added to the media.
# E. coli E423-17 = type: cell-based, Escherichia coli; details: E423-17
# Experimental: as §1, §2, §3, §4
# S. epidermidis 1457 = test: microbe, parasite or virus in culture; type: cell-based, Staphylococcus epidermidis; details: read-out: Antimicrobial activity (MIC) S. epidermidis 1457
# Experimental: as §1, §3
# A. baumannii B28-16 = type: cell-based, Acinetobacter baumannii; details: B28-16
# Experimental: as §1, §3
# P. aeruginosa E411-17 = test: microbe, parasite or virus in culture; type: cell-based, Pseudomonas aeruginosa; details: E411-17
# Experimental: as §1, §2, §3, §4
# [1] = system: S. aureus USA300 LAC biofilms; test: Disruption of preformed biofilms in vitro (XTT); type: cell-based, Staphylococcus aureus; details: 24 h preformed biofilm
# Experimental: (§5) Effects of Peptides on Established Biofilms in Vitro. Bacteria (S. aureus USA300 LAC and E. coli E423-17) were grown in rich TSB media overnight. A second inoculation was made the next day to reach an exponential phase (OD600˜0.4). Microtiter plates (96 wells, Corning Costar Cat no. 3595), after aliquoting with 180 μL of the culture to each well, were incubated at 37° C. for 24 hours to form biofilms in rich TSB. Media were aspirated post incubation, and the attached biofilms were washed with 1×PBS to remove the planktonic bacteria. […] Biofilms treated with water served as the positive control, while media without bacterial inoculation served as the negative control. Live cells in the biofilms were quantitated using XTT as described above. Absorbance was read at 450 nm (only media with XTT containing wells served as the blank) using a ChroMate™ microtiter plate reader. Percentage biofilm growth for the peptide was plotted by assuming 100% biofilm growth in bacterial control alone. The data were represented as mean±SD; plots were generated using GraphPad prism 7, where * indicates p<0.05, **p<0.01, and ***P<0.001, and ****p<0.0001 (one-way analyses of variance).
# LL-37 is known to inhibit bacterial biofilms (Overhage, et al. (2008) Infect. Immun., 76:4176-4182). However, it was unable to disrupt preformed MRSA biofilms in rich media (Mishra, et al. (2016) ACS Med. Chem. Lett., 7:117-121). Next, it was determined whether the diluted MHB medium could be useful to detect biofilm-disrupting activity for LL-37 against MRSA. An established procedure (Mishra, et al. (2016) ACS Med. Chem. Lett., 7:117-121; Duplantier, et al. (2013) Front. Immunol., 4:143) was used wherein biofilms were formed and washed as usual to remove planktonic cells. The biofilms were then treated with peptides in 12.5% MHB for 24 hours. Finally, live cells were quantified with XTT (ATCC). FIG. 2 compares the levels of live cells of MRSA in the preformed biofilms after 24 hour treatment. […] Of note is a similar pattern for both peptides in 12.5% MHB treated at various concentrations.
# Bacteria (S. aureus USA300 LAC or P. aeruginosa E411-17) were grown up in TSB media overnight. A second inoculation was made the next day to reach an exponential phase (OD600˜0.4). Microtiter plates (96 wells, Corning Costar Cat No. 3595), after aliquoting with 180 μL of the culture to each well, were incubated at 37° C. for 24 hours to form biofilms in rich TSB. Media were aspirated post incubation and the attached biofilms were washed with 1×PBS to remove the planktonic bacteria. […] Biofilms treated with water served as the positive control while media without bacterial inoculation served as the negative control. Live cells in the biofilms were quantitated using the XTT as described above. Absorbance was read at 450 nm (only media with XTT containing wells served as the blank) using a ChroMate® microtiter plate reader. Percentage biofilm growth (the plot legend is antibiofilm activity) for the peptides was plotted by assuming 100% biofilm growth in bacterial control alone. The data were represented as mean±SD, plots were generated using GraphPad prism 7, where * indicates p<0.05, ** p<0.01, and ***P<0.001, and ****p<0.0001 (one-way analyses of variance).
# E. coli E423-17 biofilms = test: Disruption of preformed biofilms in vitro (XTT); type: cell-based, Escherichia coli; details: 24 h preformed biofilm
# Experimental: as §5
# MRSA USA300 = test: microbe, parasite or virus in culture; type: cell-based, Staphylococcus aureus
# Experimental: The experiment was conducted as described (Lakshmaiah et al. (2020) Proc. Natl. Acad. Sci., 117:19446-19454). Briefly, MRSA USA300 was grown to the exponential phase in MHB and diluted to OD600 0.001 (˜10^5 CFU/mL). Aliquots of 90 μL were added to a 96-well polystyrene microplate (Costar, Corning, NY) containing 10 μL of serially diluted LL-37mini, nafcillin, or daptomycin. After overnight incubation at 37° C., the plates were read at 600 nm using a ChroMate™ microplate reader (GMI, Ramsey, MN). Untreated bacterial culture and medium were included as untreated control and blank, respectively. The MIC is the lowest peptide concentration that inhibited the bacterial growth. The wells with sub-MIC levels of the peptides that retained growth approximately half the growth of the control wells were reinoculated in fresh MHB with sub-MIC concertation of peptides or antibiotics to attain exponential phase for MIC determination. In total, 17 passages of the bacterial cultures were conducted. A rapid increase in MIC is an indication of antibiotic resistance.
# [2] = Effect of MHB dilution on antibacterial activity of a panel of antibiotics; type: cell-based; details: MHB from 100 to 12.5%
# Experimental: FIGS. 2A-2D show biofilm disruption activity of human LL-37 (FIGS. 2A and 2B) and 17BIPHE2 (FIGS. 2C and 2D) against the 24 hour preformed biofilms of S. aureus USA300 LAC in different MHB media: 12.5% MHB (FIGS. 2A and 2C) and 100% MHB (FIGS. 2B and 2D). FIGS. 2E-2H show the treatment outcome of LL-37 (FIGS. 2E and 2F) and 17BIPHE2 (FIGS. 2G and 2H) against the 24-hour preformed biofilms of E. coli E423-17 in different MHB media: 12.5% MHB (FIGS. 2E and 2G) and 100% MHB (FIGS. 2F and 2H). […] Growth curves of S. aureus USA 300 LAC (FIGS. 2J-2K) and P. aeruginosa 152 (FIGS. 2L-2M) in 12.5%, 25%, 50% and 100% MHB or TSB medium (curves from bottom to top).
# The effects of MHB dilution on the antimicrobial activity of a panel of antibiotics was also compared (FIG. 2I).
smiles,measurement,setting,value
CC(C)C[C@H](NC(=O)[C@H](CC(N)=O)NC(=O)[C@H](CCCNC(=N)N)NC(=O)[C@@H](CC(C)C)NC(=O)[C@H](Cc1ccc(-c2ccccc2)cc1)NC(=O)[C@H](CC(=O)O)NC(=O)[C@H](CCCCN)NC(=O)[C@@H](CC(C)C)NC(=O)[C@H](CCCNC(=N)N)NC(=O)[C@H](CCC(N)=O)NC(=O)[C@@H](NC(=O)[C@@H](CC(C)C)NC(=O)[C@H](CCCNC(=N)N)NC(=O)[C@H](CCCCN)NC(=O)[C@H](Cc1ccc(-c2ccccc2)cc1)NC(=O)CN)C(C)C)C(=O)N[C@H](C(N)=O)C(C)C [17BIPHE2] (HELM PEPTIDE1{G.[O=C([C@H](Cc1ccc(-c2ccccc2)cc1)N[*:1])[*:2]].K.R.[dL].V.Q.R.[dL].K.D.[O=C([C@H](Cc1ccc(-c2ccccc2)cc1)N[*:1])[*:2]].[dL].R.N.L.V.[am]}$$$$V2.0; N-terminus and C-terminus assumed),MIC,S. aureus USA300 LAC; USA300,2 to 4 µM
same,MIC,"S. aureus USA300 LAC; USA300, read-out: Antimicrobial activity (MIC) S. aureus USA300",4 µM
same,Antimicrobial activity (MIC),E. coli E423-17,<2 µM
same,Antimicrobial activity (MIC) E. coli E423-17,E. coli E423-17,4 µM
same,MIC,S. epidermidis 1457,8 µM
same,Antimicrobial activity (MIC) A. baumannii B28-16,A. baumannii B28-16,4 µM
same,Antimicrobial activity (MIC) P. aeruginosa E411-17,P. aeruginosa E411-17,4 µM
same,peptide concentration showing biofilm disruption,[1]; 12.5% MHB,16 µM
same,peptide concentration at which it started to work on biofilms,[1]; 100% MHB,8 µM
same,live bacteria remained in the biofilms,"[1]; 100% MHB, treated at 16 μM for 24 h",~30%
same,effect on biofilms,E. coli E423-17 biofilms; 12.5% MHB,dose-dependent antibiofilm effect
same,effect on biofilms,E. coli E423-17 biofilms; 100% MHB,subtle effect
CCOc1ccc2ccccc2c1C(=O)N[C@@H]1C(=O)N2[C@@H]1SC(C)(C)[C@@H]2C(=O)O [Nafcillin],MIC,"S. aureus USA300 LAC; Staphylococcus aureus, MRSA / USA300, MRSA in MHB, 20% serum, read-out: Antimicrobial activity (MIC)",16 to 32 µM
same,MIC,"S. aureus USA300 LAC; Staphylococcus aureus, MRSA / USA300, pH 6.3, MRSA in MHB, pH 6.3, read-out: Antimicrobial activity (MIC)",16 µM
same,MIC,"S. aureus USA300 LAC; Staphylococcus aureus, MRSA / USA300, pH 7.2, MRSA in MHB, pH 7.2, read-out: Antimicrobial activity (MIC)",4 to 8 µM
same,increase of MIC,MRSA USA300; 17 passages at sub-MIC,32 fold
same,MIC,"MRSA USA300; Staphylococcus aureus, read-out: MIC after multiple passages",128 µM
same,change in MIC with dilution of MHB,[2],small changes in MIC values
CN[C@H](CC(C)C)C(=O)N[C@H]1C(=O)N[C@@H](CC(N)=O)C(=O)N[C@H]2C(=O)N[C@H]3C(=O)N[C@H](C(=O)N[C@H](C(=O)O)c4cc(O)cc(O)c4-c4cc3ccc4O)[C@H](O)c3ccc(c(Cl)c3)Oc3cc2cc(c3O[C@@H]2O[C@H](CO)[C@@H](O)[C@H](O)[C@H]2O[C@H]2C[C@](C)(N)[C@H](O)[C@H](C)O2)Oc2ccc(cc2Cl)[C@H]1O [Vancomycin],MIC,"S. aureus USA300 LAC; Staphylococcus aureus, MRSA / USA300, pH 6.3, read-out: Antimicrobial activity (MIC), MRSA in MHB, pH 6.3",0.5 µM
same,MIC,"S. aureus USA300 LAC; Staphylococcus aureus, MRSA / USA300, pH 7.2, read-out: Antimicrobial activity (MIC), MRSA in MHB, pH 7.2",0.5 µM
same,MIC,"S. aureus USA300 LAC; Staphylococcus aureus, MRSA / USA300, read-out: Antimicrobial activity (MIC), MRSA in MHB, 10% serum",0.5 µM
same,MIC,"S. aureus USA300 LAC; Staphylococcus aureus, MRSA / USA300, read-out: Antimicrobial activity (MIC), MRSA in MHB, 20% serum",0.5 to 1 µM
same,MIC,"S. aureus USA300 LAC; Staphylococcus aureus, MRSA / USA300, read-out: Antimicrobial activity (MIC), MRSA in MHB, NaCl (150 mM)",0.5 to 1 µM
same,change in MIC with dilution of MHB,[2],essentially no changes
